Assay results: publication PMC12591137, “Emodin Alleviates Sepsis‐Induced Multiorgan Damage by Inhibiting NETosis through Targeting Neutrophils BCL‐10” (Advanced Science, 2025)

What was measured:
[1] = target: T1, rhBCL-10 (recombinant human BCL-10) (Homo sapiens, UniProt O95999); experiment: SPR (Biacore T200), global […] Langmuir kinetic fit; type: binding
T1 construct: gene BCL10; recombinant human protein, amine-coupled on sensor chip for SPR
T1 sequence (O95999 1-233): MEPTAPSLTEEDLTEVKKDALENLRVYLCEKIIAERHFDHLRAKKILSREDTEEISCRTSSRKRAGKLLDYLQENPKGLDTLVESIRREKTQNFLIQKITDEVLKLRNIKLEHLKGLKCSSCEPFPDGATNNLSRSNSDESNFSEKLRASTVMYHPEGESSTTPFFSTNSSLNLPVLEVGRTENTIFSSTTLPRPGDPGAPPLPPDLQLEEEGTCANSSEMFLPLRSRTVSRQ

Flag-BCL-10 = target: T2, Flag-BCL-10 (Homo sapiens, UniProt O95999); experiment: competition of free emodin against pull-down by emodin-Sepharose, anti-Flag western blot; type: biochemical; conditions: 100 µM free emodin; HEK293T lysate, pH 7.4, 4 °C
T2 construct: gene BCL10; Flag-tagged, overexpressed in HEK293T, cell lysate; plasmid section instead says N-terminal 'Streptococcus' tag in pCDH-EF1-MCS-T2A-Puro
T2 sequence (O95999 1-233): T1 sequence (O95999 1-233)

[2] = target: T1, rhBCL-10 (recombinant human BCL-10); experiment: thermal shift, soluble protein by western blot; type: binding; conditions: 100 µM emodin, 37-67 °C; text says recombinant BCL-10, methods describe lysate of PMA-treated HL-60 cells

`Cc1cc(O)c2c(c1)C(=O)c1cc(O)cc(O)c1C2=O` [Emodin] was tested, and the Kd [1] was 1940 nM, the “competition of free emodin against pull-down by emodin-Sepharose, anti-Flag west” value (Flag-BCL-10) was “free Emodin competitively inhibited the binding of Flag-BCL-10 to Emodin-Sepharose” and the thermal stabilisation [2] was “Emodin binding significantly enhances BCL-10′s thermal resistance”.
